One assay relates to K. pneumoniae 2262. The assay can be described thus: Antibacterial activity in vitro, NCCLS dilution method (Table 10). Format: cell-based. The settings on record: K. pneumoniae 2262, Gram −, ampC, MDR. From the text: (§1) NCCLS standards for antimicrobial susceptibility testing using the dilution method were followed. See: Performance Standards for Antimicrobial Susceptibility Testing; Fourteenth Informational Supplement. NCCLS Document M100-S14 (ISBN 1-56238-516-X), 2004. NCCLS, 940 West Valley Road, Suite 1400, Wayne, Pa. 19087-1898 USA, 2004; Methods for Dilution Antimicrobial Susceptibility Tests for Bacteria that Grow Aerobically; Approved Standard—Sixth Edition. NCCLS document M7-A6 (IBSBN 1-56238-486-4), NCCLS, 940 West Valley Road, Suite 1400, Wayne, Pa. 19087-1898 USA, 2003, which are hereby incorporated by reference in their entirety.

A further assay relates to K. pneumoniae 2239. Described as above. Format: cell-based. The settings on record: K. pneumoniae 2239, Gram −.
Description: as §1

In a further assay the test system is S. pneumoniae 376. Described as above. Format: cell-based. The settings on record: S. pneumoniae 376, Gram +, Quin-R.
Description: as §1

A further assay concerns M. catarrhalis 557. The description is as above. Type of assay: cell-based. To be noted: M. catarrhalis 557, Gram −.
Description: as §1

The subject of another assay is H. influenzae 1742. Described as above. Type of assay: cell-based. The settings on record: H. influenzae 1742, Gram −, ampR.
Description: as §1

The test system of the next assay is S. aureus (ATCC 29213). Described as above. Type of assay: cell-based. To be noted: Gram +, MSSA.
Description: as §1

For a further assay, the system named is E. coli 102 (ATCC 25922). The description is as above. Type of assay: cell-based. To be noted: Gram −, QC strain.
Description: as §1

The subject of another assay is S. pneumoniae 940. Described as above. Format: cell-based. The settings on record: S. pneumoniae 940, Gram +, PRSP.
Description: as §1

Another assay concerns S. aureus 1137. The assay is described as above. The settings on record: S. aureus 1137, Gram +, MRSA. Format: cell-based.
Description: as §1

The next assay relates to S. marcescens 1635. Described as above. Type of assay: cell-based. To be noted: S. marcescens 1635, Gram −.
Description: as §1

A further assay concerns S. pneumoniae 975. The assay is described as above. Format: cell-based. The settings on record: S. pneumoniae 975, Gram +, PSSP.
Description: as §1

The test system of the next assay is E. coli 2269. The assay is described as above. Format: cell-based. The settings on record: E. coli 2269, Gram −, ESBL-producer.
Description: as §1

Another assay has as its system S. aureus 2012. The assay is described as above. To be noted: S. aureus 2012, Gram +, VISA. Format: cell-based.
Description: as §1

Assay [1] has as its system H. parainfluenzae 2319 (ATCC 7901). The assay is described as above. Format: cell-based. To be noted: Gram −.
Description: as §1

A further assay deals with S. aureus 1725. The assay is described as above. Format: cell-based. To be noted: S. aureus 1725, Gram +, LRSA.
Description: as §1

Another assay deals with MRSA 43300. The assay can be described thus: Antibacterial activity, NCCLS dilution method (Table 9). Format: cell-based, S. aureus. To be noted: Staphylococcus aureus, MRSA, read-out: MRSA 43300 MIC. A digest of the protocol:
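Susceptibility was tested by the NCCLS dilution method for bacteria that grow aerobically. Procedures followed the NCCLS approved standard (sixth edition) together with its fourteenth informational supplement.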

The mark [2] stands for this setting: MRSA 43300, dilution method, labels marked a tested as a mixture of diastereomers.

The structures appear in SMILES notation. Values after ≈ are worked out from the molar mass of the structure shown. Read-outs that look alike come from different tables or passages of the source. Where only a bound is given, the exact number is not on record here.

For `C[C@@H](O)[C@H]1C(=O)N2C(C(=O)O)=C(S[C@@H]3CN[C@H](C(=O)N(C)C)C3)[C@H](C)[C@H]12` [Meropenem], the “antibacterial activity (dilution susceptibility test)” value (shortened to “antibacterial activity”) in the assay with K. pneumoniae 2262 is listed as above 4; in the assay with K. pneumoniae 2239 it was 0.06; in the assay on S. pneumoniae 376, 0.015; with M. catarrhalis 557, “≦0.04”; in the assay with H. influenzae 1742, 0.06; with S. aureus (ATCC 29213), 0.12. In addition, the “antibacterial activity” value is 0.03 with E. coli 102 (ATCC 25922); 1 with S. pneumoniae 940; above 4 in the assay on S. aureus 1137; 0.12 in the assay on S. marcescens 1635; 0.015 in the assay on S. pneumoniae 975; 0.03 in the assay on E. coli 2269. The “antibacterial activity” value was above 4 in the assay on S. aureus 2012, 0.03 in [1] and 0.25 in the assay on S. aureus 1725.

`CO[C@@H]1[C@@H](O)[C@@H](OC)C(NC2=CC(=O)c3c(cc4c(c3O)C(=O)[C@]3(OC)[C@H](O)Cc5cc(C)c(C(=O)N(C)C)c(O)c5[C@]3(O)C4=O)C2=O)O[C@H]1C` (mixture of isomers) [Example 16, (6R,6aS,14aR)-1,6,8,14a-Tetrahydroxy-11-((3R,4R,5R,6S)-4-hydroxy-3,5-dimethoxy-6-methyltetrahydro-2H-pyran-2-ylamino)-6a-methoxy-N,N,3-trimethyl-7,9,12,14-tetraoxo-5,6,6a,7,9,12,14,14a-octahydrobenzo[a]tetracene-2-carboxamide]: in the assay on MRSA 43300 (setting [2]), the minimum inhibitory concentration (MIC) came to 16 µg/mL (≈ 22.5 µM).

Regarding `COC(=O)c1c(C)c(N)c2c(c1O)[C@]1(O)C(=O)c3cc4c(c(O)c3C(=O)[C@]1(OC)[C@H](O)C2)C(=O)C=C(N[C@H]1O[C@@H](C)[C@H](OC)[C@@H](O)[C@H]1OC)C4=O` [Example 42, (6R,6aS,14aR)-Methyl 4-amino-1,6,8,14a-tetrahydroxy-11-((2S,3R,4R,5R,6S)-4-hydroxy-3,5-dimethoxy-6-methyltetrahydro-2H-pyran-2-ylamino)-6a-methoxy-3-methyl-7,9,12,14-tetraoxo-5,6,6a,7,9,12,14,14a-octahydrobenzo[a]tetracene-2-carboxylate 2,2,2-trifluoroacetate], the minimum inhibitory concentration (MIC) in the assay on MRSA 43300 was in the range of 2 to 4 µg/mL (≈ 2.81 to 5.61 µM).

With `CO[C@@H]1[C@@H](O)[C@@H](OC)C(NC2=CC(=O)c3c(cc4c(c3O)C(=O)[C@]3(OC)[C@H](O)Cc5cc(C)c(C(=O)NCc6ccc(F)cc6)c(O)c5[C@]3(O)C4=O)C2=O)O[C@H]1C` (mixture of isomers) [Example 26, (6R,6aS,14aR)—N-(4-Fluorobenzyl)-1,6,8,14a-tetrahydroxy-11-((3R,4R,5R,6S)-4-hydroxy-3,5-dimethoxy-6-methyltetrahydro-2H-pyran-2-ylamino)-6a-methoxy-3-methyl-7,9,12,14-tetraoxo-5,6,6a,7,9,12,14,14a-octahydrobenzo[a]tetracene-2-carboxamide], the MIC in the assay with MRSA 43300 (setting [2]) was 0.5 µg/mL (≈ 0.632 µM).

As to `CO[C@@H]1[C@@H](O)[C@@H](OC)[C@@H](NC2=CC(=O)c3c(cc4c(c3O)C(=O)[C@]3(OC)[C@H](O)Cc5cc(C)c(C(=O)OCCCc6ccccc6)c(O)c5[C@]3(O)C4=O)C2=O)O[C@H]1C` [Example 33, (6R,6aS,14aR)-3-Phenylpropyl 1,6,8,14a-tetrahydroxy-11-((2S,3R,4R,5R,6S)-4-hydroxy-3,5-dimethoxy-6-methyltetrahydro-2H-pyran-2-ylamino)-6a-methoxy-3-methyl-7,9,12,14-tetraoxo-5,6,6a,7,9,12,14,14a-octahydrobenzo[a]tetracene-2-carboxylate], the minimal inhibitory concentration (MIC) with MRSA 43300 (setting [2]) lay within 1 to 2 µg/mL (≈ 1.25 to 2.49 µM).

As for `COC(=O)c1c(C)cc2c(c1O)[C@]1(O)C(=O)c3cc4c(c(O)c3C(=O)[C@]1(OC)[C@H](O)C2)C(=O)C=C(N[C@H]1O[C@@H](C)[C@H](OC)/C(=N/OCC(=O)O)[C@H]1OC)C4=O` [Example 51, 2-((Z)-((2S,3R,5R,6S)-3,5-Dimethoxy-2-methyl-6-((6R,6aS,14aR)-1,6,8,14a-tetrahydroxy-6a-methoxy-2-(methoxycarbonyl)-3-methyl-7,9,12,14-tetraoxo-5,6,6a,7,9,12,14,14a-octahydrobenzo[a]tetracen-11-ylamino)-2H-pyran-4(3H,5H,6H)-ylidene)aminooxy)acetic acid], the minimum inhibitory concentration (MIC) in the assay with MRSA 43300 (setting [2]) worked out at 8 µg/mL (≈ 10.4 µM).

As to `COC(=O)c1c(C)cc2c(c1O)[C@]1(O)C(=O)c3cc4c(c(O)c3C(=O)[C@]1(OC)/C(=N/O)C2)C(=O)C=C(N[C@H]1O[C@@H](C)[C@H](OC)/C(=N/O)[C@H]1OC)C4=O` [Example 53, (6aS,14aR,E)-Methyl 1,8,14a-trihydroxy-6-(hydroxyimino)-11-((2S,3R,5R,6S,Z)-4-(hydroxyimino)-3,5-dimethoxy-6-methyltetrahydro-2H-pyran-2-ylamino)-6a-methoxy-3-methyl-7,9,12,14-tetraoxo-5,6,6a,7,9,12,14,14a-octahydrobenzo[a]tetracene-2-carboxylate], in the assay on MRSA 43300 (setting [2]), the MIC was determined as 0.12 µg/mL (≈ 0.166 µM).

`COC(=O)c1c(C)cc2c(c1O)[C@]1(O)C(=O)c3cc4c(c(O)c3C(=O)[C@]1(OC)[C@H](O)C2)C(=O)C=C(N[C@H]1O[C@@H](C)[C@H](OC)[C@@H](O)[C@H]1OC)C4(C)O` (single isomer, unassigned) [Example 55]: the MIC in the assay on MRSA 43300 (setting [2]) was determined as 32 µg/mL (≈ 44.8 µM).

For `CO[C@@H]1[C@@H](O)[C@@H](OC)C(NC2=CC(=O)c3c(cc4c(c3O)C(=O)[C@]3(OC)[C@H](O)Cc5cc(C)c(C(=O)NCc6ccc(Cl)cc6)c(O)c5[C@]3(O)C4=O)C2=O)O[C@H]1C` (mixture of isomers) [Example 27, (6R,6aS,14aR)—N-(4-Chlorobenzyl)-1,6,8,14a-tetrahydroxy-11-((3R,4R,5R,6S)-4-hydroxy-3,5-dimethoxy-6-methyltetrahydro-2H-pyran-2-ylamino)-6a-methoxy-3-methyl-7,9,12,14-tetraoxo-5,6,6a,7,9,12,14,14a-octahydrobenzo[a]tetracene-2-carboxamide], the minimal inhibitory concentration (MIC) in the assay on MRSA 43300 (setting [2]) amounted to 8 µg/mL (≈ 9.91 µM).

For `COC(=O)c1c(C)cc2c(c1OC)[C@]1(O)C(=O)c3cc4c(c(OC)c3C(=O)[C@]1(OC)[C@H](O)C2)C(=O)C=C(NC1O[C@@H](C)[C@H](OC)[C@@H](O)[C@H]1OC)C4=O` (mixture of isomers) [Example 5, (6R,6aS,14aR)-Methyl 6,14a-dihydroxy-11-((3R,4R,5R,6S)-4-hydroxy-3,5-dimethoxy-6-methyltetrahydro-2H-pyran-2-ylamino)-1,6a,8-trimethoxy-3-methyl-7,9,12,14-tetraoxo-5,6,6a,7,9,12,14,14a-octahydrobenzo[a]tetracene-2-carboxylate], the minimum inhibitory concentration (MIC) in the assay with MRSA 43300 (setting [2]) worked out at 2 µg/mL (≈ 2.76 µM).

For the compound `CCOC(=O)CCC1(O)C(N[C@H]2O[C@@H](C)[C@H](OC)[C@@H](O)[C@H]2OC)=CC(=N)c2c1cc1c(c2O)C(=O)[C@]2(OC)[C@H](O)Cc3cc(C)c(C(=O)OC)c(O)c3[C@]2(O)C1=O` (stereo partly drawn) [Example 59, (6R,6aS,14aR)-methyl 12-(3-ethoxy-3-oxopropyl)-1,6,8,12,14a-pentahydroxy-11-((2S,3R,4R,5R,6S)-4-hydroxy-3,5-dimethoxy-6-methyltetrahydro-2H-pyran-2-ylamino)-9-imino-6a-methoxy-3-methyl-7,14-dioxo-5,6,6a,7,9,12,14,14a-octahydrobenzo[a]tetracene-2-carboxylate], the MIC with MRSA 43300 (setting [2]) was determined as 32 µg/mL (≈ 40.1 µM).

The values above are taken from patent US8754054B2, “Antibacterial compounds, methods of making them, and uses thereof” (Albany Molecular Research, Inc., priority 2010, dated 2014).
